Test results published in patent US20130130912A1, “AGROCHEMICAL FORMULATION COMPOSITION” (priority 2010, published 2013).

What was measured:
[1] = solubility of pesticide actives in dialkyl carbonate solvents (CIPAC method MT181); type: physicochemical; conditions: 20 deg C.; for solubility in Bis-(2-ethylhexyl) carbonate solvent: Bis-(2-ethylhexyl) carbonate solvent (comparative)
Source text: All solubility measurements are done according to the CIPAC method MT181.

[2] = phytotoxic properties of dialkyl carbonates
Source text: A further advantage of the dialkylcarbonates used, is their compatibility with construction materials used in spraying equipment.

| SMILES | solubility in Bis-(2-ethylhexyl) carbonate solvent [1] | SOLUBILITY OF PESTICIDE ACTIVES IN di-n-butylcarbonate (DNBC) SOLVENT [1] | solubility in di-n-pentyl carbonate solvent [1] | SOLUBILITY OF PESTICIDE ACTIVES IN di-n-propylcarbonate (DNPC) SOLVENT [1] | phytotoxicity [2] |
| --- | --- | --- | --- | --- | --- |
| O=C(Nc1ccc(F)cc1F)c1cccnc1Oc1cccc(C(F)(F)F)c1 [Diflufenican] | <10 grams/litre | <50 grams/litre | 14-20 grams/litre |  |  |
| CCC(CC)Nc1c([N+](=O)[O-])cc(C)c(C)c1[N+](=O)[O-] [Pendimethalin] | 80-100 grams/litre | >300 grams/litre | >100 grams/litre | >300 grams/litre |  |
| CCCCOC(=O)OCCCC [di-n-butyl carbonate, di-n-butylcarbonate] |  |  |  |  | not to be phytotoxic |
| CC(C)(C)C(O)(CCc1ccc(Cl)cc1)Cn1cncn1 (centres unmarked) [Tebuconazole] | <10 grams/litre | 140 grams/litre | 33-40 grams/litre | >100 grams/litre |  |
| Fc1ccc([C@]2(Cn3cncn3)O[C@H]2c2ccccc2Cl)cc1 (racemic) [Epoxiconazole] | <10 grams/litre | 45 grams/litre | 20-25 grams/litre |  |  |
| CCc1cccc(C)c1N(C(=O)CCl)C(C)COC (centres unmarked) [Metolachlor] | >200 grams/litre | >600 grams/litre | >200 grams/litre |  |  |
| CC(C)(C)C(O)C(Oc1ccc(Cl)cc1)n1cncn1 (centres unmarked) [Triadimenol] | <10 grams/litre | 45 grams/litre | 20-25 grams/litre |  |  |
| CCCN(CCC)c1c([N+](=O)[O-])cc(C(F)(F)F)cc1[N+](=O)[O-] [Trifluralin] | 80-100 grams/litre | >600 grams/litre | >250 grams/litre | >600 grams/litre |  |
| CCNc1nc(NC(C)C)nc(SC)n1 [Ametryn] | 80-100 grams/litre | 350 grams/litre | 120 grams/litre | >250 grams/litre |  |
